# Measured values as given in US8017611B2, “Pyridine and pyrazine derivatives -083” (AstraZeneca AB, priority 2007, dated 2011).
# Molecular target: T1, recombinant Axl tyrosine kinase (Homo sapiens, UniProt P30530)
# T1 construct: encompassing amino acids 473 to 894 of Axl; GST (N); made in house; host or cells: SF126 insect cells
# T1 sequence (P30530 473-894): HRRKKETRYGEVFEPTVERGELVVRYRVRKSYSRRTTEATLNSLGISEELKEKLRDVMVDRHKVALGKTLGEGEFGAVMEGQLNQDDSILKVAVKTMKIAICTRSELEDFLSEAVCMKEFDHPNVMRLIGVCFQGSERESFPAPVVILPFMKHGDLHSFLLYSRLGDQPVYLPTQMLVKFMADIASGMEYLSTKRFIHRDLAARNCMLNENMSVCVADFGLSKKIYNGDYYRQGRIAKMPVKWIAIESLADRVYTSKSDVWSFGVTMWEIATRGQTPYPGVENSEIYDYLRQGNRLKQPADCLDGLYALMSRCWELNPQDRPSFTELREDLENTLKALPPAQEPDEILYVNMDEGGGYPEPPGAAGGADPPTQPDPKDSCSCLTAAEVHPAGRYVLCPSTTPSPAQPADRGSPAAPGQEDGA
# Test: In vitro Axl kinase assay (AlphaScreen), Test (a)
# Format: biochemical
# Conditions: 1 μM; mean calculated from a larger number of replicates than the first value; read-out: % Axl tyrosine kinase inhibition at 1 μM concentration (second value, †)
# Procedure: Test compounds were prepared as 10 mM stock solutions in dimethylsulphoxide (DMSO) and diluted in DMSO as required. Aliquots (120 nl) of compound dilutions were filled into the wells of a Greiner 384-well low volume (LV) white polystyrene plate (Greiner Bio-one) using acoustic dispensing (Labcyte Echo 550). A 10 μl mixture of recombinant purified Axl enzyme, biotinylated peptide substrate (Biotin poly-GAT; CisBio, Catalogue No. 61GATBLB), 0.2 μM adenosine triphosphate (ATP) and a buffer solution [comprising 20 mM Tris-HCl pH 7.5 buffer, 0.01% v/v Tween, 5 mM dithiothreitol (DTT) and 10 mM manganese chloride] was incubated with the compounds at room temperature for 20 minutes.
# Control wells that produced a minimum signal corresponding to 100% inhibited enzyme were created by adding 10 μM of Staurosporine.
# The percentage kinase inhibition value is the percentage of Axl tyrosine kinase activity inhibited by the test compound at a concentration of 1 μM.
row,Structure (SMILES),inhibition at 1 µM
1,"CC(C)(C)OC(=O)N1CCC(n2cc(-c3cnc(N)c(-c4nc5ccccc5o4)n3)cn2)CC1 [Example 15, Tert-butyl 4-[4-[5-amino-6-(1,3-benzoxazol-2-yl)pyrazin-2-yl]pyrazol-1-yl]piperidine-1-carboxylate]",99.4%

# Same assay, conditions: Test (a); read-out: IC50 versus Axl tyrosine kinase
row,Structure (SMILES),IC50
1,"COCc1nn(C2CCN(C(=O)CO)CC2)cc1-c1cnc(N)c(-c2nc3ccccc3o2)c1 [Example 66, 1-[4-[4-[6-amino-5-(1,3-benzoxazol-2-yl)-3-pyridyl]-3-(methoxymethyl)pyrazol-1-yl]-1-piperidyl]-2-hydroxy-ethanone]",~0.6 nM

# Same assay, conditions: test compound at 1 μM; first value quoted
row,Structure (SMILES),% Axl tyrosine kinase inhibition at 1 μM concentration
1,CN(C)CCCNC(=O)c1ccc(-c2cnc(N)c(-c3nc4cnccc4o3)c2)cc1 [Example 8A.17],99.8%
2,CC(C)(C)OC(=O)NCc1cccc(-c2cnc(N)c(-c3nc4ccncc4o3)c2)c1 [Example 11A.9],99.3%
3,CNCCCOc1ccc(-c2cnc(N)c(-c3nc4ncccc4o3)c2)cc1OC [Example 43C.28],51.0%
4,Nc1ncc(-c2ccc(C(=O)N3CCCCC3CN3CCCCC3)cc2)cc1-c1nc2cccnc2o1 (stereo not drawn) [Example 45A.8],99.8%
5,COc1cc(-c2cnc(N)c(-c3nc4ncccc4o3)c2)ccc1OCCCN(C)C [Example 43C.10],98.9%
6,Nc1ncc(-c2ccc(C(=O)N3CCC(N4CCOCC4)CC3)cc2)cc1-c1nc2cccnc2o1 [Example 45A.64],98.6%
7,COc1cc(-c2cnc(N)c(-c3nc4ncccc4o3)c2)ccc1OCC#CCN1CCS(=O)(=O)CC1 [Example 43C.20],98.1%
8,CNCCOc1ccc(-c2cnc(N)c(-c3nc4ncccc4o3)c2)cc1OC [Example 43C.22],98.2%
9,CNCCOc1ccc(-c2cnc(N)c(-c3nc4ncccc4o3)c2)cc1 [Example 43B.26],97.7%
10,Nc1ncc(-c2cccc(NC(=O)C3CCNCC3)c2)cc1-c1nc2cnccc2o1 [Example 8A.26],97.9%
11,CN(C)[C@@H]1CCN(C(=O)c2ccc(-c3cnc(N)c(-c4nc5cccnc5o4)c3)cc2)C1 [Example 45A.76],96.7%
12,CN[C@H]1COCC[C@H]1Oc1ccc(-c2cnc(N)c(-c3nc4ncccc4o3)c2)cc1OC [Example 43C.37],99.4%
13,N#CCc1cccc(-c2cnc(N)c(-c3nc4ccccc4o3)n2)c1 [Example 20.16],99.6%
14,Nc1ncc(-c2ccc(C(=O)N3CCCC(N)CC3)cc2)cc1-c1nc2cccnc2o1 (stereo not drawn) [Example 45A.95],99.5%
15,Cc1nn(C2CCN(C)CC2)cc1-c1cnc(N)c(-c2nc3cccnc3o2)c1 [Example 41.20],99.7%
16,CN1CCC(n2cc(-c3cnc(N)c(-c4nc5ccccc5o4)c3)c(C#N)n2)CC1 [Example 41.28],100.0%
17,COc1cc(-c2cnc(N)c(-c3nc4ncccc4o3)c2)ccc1OCCC1CCCCN1C (stereo not drawn) [Example 43C.13],99.9%
18,COc1cc(-c2cnc(N)c(-c3nc4ncccc4o3)c2)ccc1OCCCN1CC(C)NC(C)C1 (stereo not drawn) [Example 43C.34],99.1%
19,COCCN1CCN(C(=O)c2ccc(-c3cnc(N)c(-c4nc5cccnc5o4)c3)cc2)CC1 [Example 45A.59],88.8%

row,Structure (SMILES),% Axl tyrosine kinase inhibition at 1 μM concentration
1,CNS(=O)(=O)c1cccc(-c2cnc(N)c(-c3nc4cnccc4o3)c2)c1 [Example 8A.6],97.7%
2,CN1CCC(n2cc(-c3cnc(N)c(-c4nc5cc(F)ccc5o4)c3)cn2)CC1 [Example 7.1],99.9%
3,Nc1ncc(-c2cccc(CN3CCCCC3)c2)cc1-c1nc2cccnc2o1 [Example 9A.9],95.3%
4,Nc1ncc(-c2ccc(OCCCN3CCOCC3)cc2)cc1-c1nc2ncccc2o1 [Example 43B.19],95.8%
5,Nc1ncc(-c2ccc(C(=O)N3CCCCC3CN3CCOCC3)cc2)cc1-c1nc2cccnc2o1 (stereo not drawn) [Example 45A.21],96.4%
6,Nc1ncc(-c2ccc(C(=O)N3CCC(O)CC3)cc2)cc1-c1nc2cnccc2o1 [Example 8A.8],97.1%
7,COc1cc(-c2cnc(N)c(-c3nc4ncccc4o3)c2)ccc1OCCC1CCNCC1 [Example 43C.31],99.3%
8,Nc1ncc(-c2ccc(OCCN3CCCC3)cc2)cc1-c1nc2cccnc2o1 [Example 43A.3],98.7%
9,Nc1ncc(-c2cnn(CCN3CCC(O)CC3)c2)cc1-c1nc2ccccc2o1 [Example 31.9],99.8%
10,Nc1ncc(-c2cccc(N3CCCCC3)c2)cc1-c1nc2ccncc2o1 [Example 11A.6],90.0%
11,Nc1ncc(-c2ccc(OCCOC3CCNCC3)cc2)cc1-c1nc2ncccc2o1 [Example 43B.37],97.6%
12,N#Cc1ccc(-c2cnc(N)c(-c3nc4ccccc4o3)c2)cc1 [Example 2.44],25.0%
13,NCC1CCN(C(=O)c2ccc(-c3cnc(N)c(-c4nc5cccnc5o4)c3)cc2)CC1 [Example 45A.78],97.7%
14,Nc1ncc(-c2ccc(C(=O)N3CC4CNCC4C3)cc2)cc1-c1nc2cccnc2o1 (stereo not drawn) [Example 45A.94],98.9%
15,Nc1ncc(-c2cnn(C3CCN(C(=O)CO)CC3)c2)cc1-c1nc2ccccc2o1 [Example 34.2],100.0%
16,CN(C)C1CCN(C(=O)c2ccc(-c3cnc(N)c(-c4nc5cccnc5o4)c3)cc2)CC1 [Example 45A.1],92.9%
17,Nc1ncc(-c2ccc(C(=O)N3CCCC3CN3CCOCC3)cc2)cc1-c1nc2cccnc2o1 (stereo not drawn) [Example 45A.16],94.2%
18,COc1cc(-c2cnc(N)c(-c3nc4ncccc4o3)c2)ccc1OCCN [Example 43C.21],99.3%

# Same assay, conditions: test compound at 1 μM; first value quoted; read-out: % Axl tyrosine kinase inhibition at 1 μM concentration
row,Structure (SMILES),inhibition at 1 µM
1,"CN(C)CCNC(=O)c1ccc(-c2cnc(N)c(-c3nc4cccnc4o3)c2)cc1 [Example 44, 4-(6-amino-5-(oxazolo[5,4-b]pyridin-2-yl)pyridin-3-yl)-N-(2-(dimethylamino)ethyl)benzamide]",99.6%
2,"Nc1ncc(-c2cnn(C3CCNCC3)c2)cc1-c1nc2cccnc2o1 [Example 9, 3-Oxazolo[5,4-b]pyridin-2-yl-5-[1-(4-piperidyl)pyrazol-4-yl]pyridin-2-amine]",98.8%
3,"CCN1CCC(n2cc(-c3cnc(N)c(-c4nc5ncccc5o4)c3)cn2)CC1 [Example 52, 5-[1-(1-ethyl-4-piperidyl)pyrazol-4-yl]-3-oxazolo[4,5-b]pyridin-2-yl-pyridin-2-amine]",99.8%
4,"COCc1nn(C2CCN(C(=O)CO)CC2)cc1-c1cnc(N)c(-c2nc3ccccc3o2)c1 [Example 66, 1-[4-[4-[6-amino-5-(1,3-benzoxazol-2-yl)-3-pyridyl]-3-(methoxymethyl)pyrazol-1-yl]-1-piperidyl]-2-hydroxy-ethanone]",100%
5,"Nc1ncc(-c2cccc(N3CCOCC3)c2)nc1-c1nc2ccccc2s1 [Example 49, 3-(1,3-Benzothiazol-2-yl)-5-(3-morpholinophenyl)pyrazin-2-amine]",73.4%
6,"C[N+]1([O-])CCC(n2cc(-c3cnc(N)c(-c4nc5ccccc5o4)c3)cn2)CC1 (stereo not drawn) [Example 12, 3-(1,3-Benzoxazol-2-yl)-5-[1-(1-methyl-1-oxido-piperidin-1-ium-4-yl)pyrazol-4-yl]pyridin-2-amine]",90.6%
7,"Nc1ncc(-c2cnn(C3CCNCC3)c2)nc1-c1nc2ccccc2s1 [Example 19, 3-(1,3-Benzothiazol-2-yl)-5-[1-(4-piperidyl)pyrazol-4-yl]pyrazin-2-amine]",99.6%
8,"CC(C)(C)OC(=O)N1CCC(n2cc(-c3cnc(N)c(-c4nc5ccccc5o4)n3)cn2)CC1 [Example 15, Tert-butyl 4-[4-[5-amino-6-(1,3-benzoxazol-2-yl)pyrazin-2-yl]pyrazol-1-yl]piperidine-1-carboxylate]",93.1%
9,"Cc1cccc2nc(-c3cc(-c4cnn(C5CCN(C)CC5)c4)cnc3N)oc12 [Example 36, 3-(7-methyl-1,3-benzoxazol-2-yl)-5-[1-(1-methyl-4-piperidyl)pyrazol-4-yl]pyridin-2-amine]",100%
